In patent EP0863702B1, “FUNGICIDAL MIXTURE” (BASF AKTIENGESELLSCHAFT, priority 1995, dated 1997) one finds Wirkungsgrad data, which are given here for 3 compounds.

Experiment [1] relates to Botrytis cinerea. Nature of the experiment: Efficacy against Botrytis cinerea on paprika seedlings (protective spray). In kind it is in vivo. The following applies: single active, Paprikasämlinge, 5 Tage, 22 bis 24°C. On the procedure: Paprikasämlinge der Sorte "Neusiedler Ideal Elite" wurden, nachdem sich 4 bis 5 Blätter gut entwickelt hatten, mit wäßrigen Suspensionen, die 80 % Wirkstoff und 20 % Emulgiermittel in der Trockensubstanz enthielten, tropfnaß gespritzt. Nach dem Antrocknen des Spritzbelages wurden die Pflanzen mit einer Konidienaufschwemmung des Pilzes Botrytis cinerea besprüht und bei 22 bis 24°C in eine Kammer mit hoher Luftfeuchtigkeit gestellt. Nach 5 Tagen hatte sich die Krankheit auf den unbehandelten Kontrollpflanzen so stark entwickelt, daß die entstandenen Blattnekrosen den überwiegenden Teil der Blätter bedeckten.
(§1) Die visuell ermittelten Werte für den Prozentanteil befallener Blattfläche wurden in Wirkungsgrade als % der unbehandelten Kontrolle umgerechnet. Wirkungsgrad 0 ist gleicher Befall wie in der unbehandelten Kontrolle, Wirkungsgrad 100 ist 0 % Befall. Die zu erwartenden Wirkungsgrade für Wirkstoffkombinationen wurden nach der Colby-Formel ermittelt (S. R. Colby "Calculating synergistic and antagonistic responses of herbicide combinations", Weeds 15, Seiten 20 bis 22 (1967)) und mit den beobachteten Wirkungsgraden verglichen.

Experiment [2] relates to Botrytis cinerea. Nature of the experiment: Efficacy against Botrytis cinerea on slices of green paprika fruit. The experiment is classed as in vivo. The following applies: single active, Paprikaschoten-Scheiben, 4 Tage, 18°C. On the procedure:
Scheiben von grünen Paprikaschoten wurden mit wäßriger Wirkstoffaufbereitung, die 80 % Wirkstoff und 20 % Emulgiermittel in der Trockensubstanz enthielt, tropfnaß besprüht. 2 Stunden nach dem Antrocknen des Spritzbelages wurden die Fruchtscheiben mit einer Sporensuspension von Botrytis cinerea, die 1,7 x 10^6 Sporen pro ml einer 2 %igen Biomalzlösung enthielt, inokuliert. Die inokulierten Fruchtscheiben wurden anschließend in feuchten Kammern bei 18°C für 4 Tage aufgestellt. Dann erfolgte visuell die Auswertung der Botrytis-Entwicklung auf den befallenen Fruchtscheiben.
as §1

For `CC(C)(CCl)C(=O)Nc1ccc(O)c(Cl)c1Cl` [(A)], the results for the Wirkungsgrad in the experiment on Botrytis cinerea [1] (25 ppm in der Spritzbrühe), in the experiment on Botrytis cinerea [1] (100 ppm in der Spritzbrühe) and in the experiment on Botrytis cinerea [2] (100 ppm in der Spritzbrühe) were 40 % der unbehandelten Kontrolle, 84 % der unbehandelten Kontrolle and 20 % der unbehandelten Kontrolle, respectively.
For the compound `CC1(C(=O)Nc2ccc(O)c(Cl)c2Cl)CC2CCC1C2` (centres unmarked) [(B)], the Wirkungsgrad is listed as 65 % der unbehandelten Kontrolle with Botrytis cinerea [1] (25 ppm in der Spritzbrühe), 80 % der unbehandelten Kontrolle in the experiment with Botrytis cinerea [1] (100 ppm in der Spritzbrühe), 10 % der unbehandelten Kontrolle in the experiment on Botrytis cinerea [2] (25 ppm in der Spritzbrühe) and 25 % der unbehandelten Kontrolle in the experiment on Botrytis cinerea [2] (100 ppm in der Spritzbrühe).
For `CC1(C(=O)Nc2ccc(O)c(Cl)c2Cl)CCCCC1` [(C)] the same measures were 35 % der unbehandelten Kontrolle, 70 % der unbehandelten Kontrolle, 30 % der unbehandelten Kontrolle and 25 % der unbehandelten Kontrolle.
